Data published in patent US12357711B2, “PSMA binding dual mode radiotracer and therapeutic” (Technische Universität München, priority 2019, dated 2025).
Values joined by “and” are separate entries in the source; they are usually repeats but may differ in a detail not shown here. Equal entries are not always repeated. Marks after values point to notes of the source that are not given here.

Columns and labels:
[1] = system: PSMA-positive LNCaP cells; assay: Internalization in LNCaP cells, normalized to ([125I]I-BA)KuE; type: cell-based; settings: LNCaP cells, 1 hour, 37° C.
Protocol: Data is corrected for non-specific binding ([…]) and expressed as mean±SD (n=3).
Subsequent to the removal of the culture medium, the cells were washed once with 500 μL DMEM-F12 (5% BSA) and left to equilibrate for at least 15 min at 37° C. in 200 μL DMEM-F12 (5% BSA). Each well was treated with either 25 μL of either DMEM-F12 (5% BSA) or a 100 μM PMPA solution for blockade. Next, 25 μL of the ^68Ga/^18F-labeled PSMA inhibitor (5.0 nM) was added and the cells incubated at 37° C. for 60 min. The experiment was terminated by placing the 24-well plate on ice for 3 min and consecutive removal of the medium. Each well was rinsed with 250 μL HBSS and the fractions from these first two steps combined, representing the amount of free radioligand. Removal of surface bound activity was accomplished by incubation of the cells with 250 μL of ice-cold PMPA (10 μM in PBS) solution for 5 min and rinsed again with another 250 μL of ice-cold PBS. The internalized activity was determined by incubation of the cells in 250 μL 1 M NaOH and the combination with the fraction of a subsequent wash step with 250 μL 1.0 M NaOH. Each experiment (control and blockade) was performed in triplicate. Free, surface bound and internalized activity was quantified in a γ-counter. […] Data were corrected for non-specific internalization and normalized to the specific-internalization observed for the radioiodinated reference compound.

[2] = Formation of F-18-fluoride / isotopic exchange in mouse urine; type: in vitro ADME, mice
Protocol: For in vivo μmetabolism studies, 8-12 MBq (<0.6 nmol) of the respective ^18F-labeled ligand (rhPSMA-7.1-7.4) was injected into the tail vein of female healthy CB17-SCID mice (n=4). Mice were left under anesthesia for 30 min and the urine was collected using a bladder catheter. Urine samples were pooled and centrifuged for 5 min at 9000 rpm to remove suspended solids. The supernatant was directly used for radio-HPLC analysis with the above mentioned conditions. […] Additionally, this experiment was carried out with the addition of excess Na^19F (0.5 μmop and incubation for 2 h with ^18F-labeled rhPSMA-7.3.
For this purpose normal mice were used. Urine samples were collected by means of a catheter over a period of 30 min. The urine was centrifuged and directly subjected to HPLC and TLC.
Consequently, fresh and nonradioactive urine samples collected from normal mice were incubated with [F-18]rhPSMA7.x for various time periods (see legend to FIG. 21).
To further support the hypothesis, 500 nmol cold F-19-fluoride was added to fresh and nonradioactive urine of mice, followed by the addition of [F-18]rhPSMA7.3 and incubation for 2 h. According to the hypothesis, the high concentration of [F-19]fluoride should result in the formation of a significant amount of [F-18]fluoride.

[3] = system: LNCaP tumor bearing mouse; assay: Radio-TLC analysis of intact tracer and 18F-fluoride in blood, organ and urine samples, 30 min p.i.; type: in vivo, mice
Protocol: For radio-thin-layer chromatography, aluminum sheets coated with silica gel 60 RP-18 F254s were used with a mobile phase consisting of a 3:2 mixture (v/v) of MeCN in H2O supplemented with 10% of 2 M aqueous NaOAc and 1% of TFA. Analysis was performed using either a Scan-RAM radio-TLC detector (LabLogic Systems Ltd., Sheffield, United Kingdom) or a CR 35 BIO phosphorimager (Duerr Medical GmbH, Bietigheim-Bissingen, Germany).
In order to quantify the relative uptake of each isomer (rhPSMA-7.1-7.4), a tumor-bearing male CB-17-SCID mouse was injected with the racemic mixture of rhPSMA-7 (180-280 MBq, SA=247-349 GBq/μmol, produced at the Klinikum rechts der Isar in a fully automated procedure). The animal was left under anesthesia for 30 min and sacrificed. Urine, blood, liver, kidneys and tumor were collected and processed to the hereafter described procedures. The urine sample was centrifuged for 5 min at 9000 rpm to yield a clear solution and directly subjected to radio-HPLC analysis. Blood was diluted to 1 mL with H2O and centrifuged twice at 13000 g for 5 min. The supernatant was collected and loaded on a Strata X cartridge (33 μm Polymeric Reversed Phase 500 mg, pre-conditioned with 5 mL MeOH, followed by 5 mL H2O). After washing with 5 mL H2O, the cartridge was eluted with a 6:4 mixture (v/v) of MeCN in H2O, supplemented with 1% TFA. The eluate was diluted with water and analysed by radio-HPLC. Tumour, kidneys and liver were homogenised using either a Potter-Elvehjem tissue grinder (Kontes Glass Co, Vineland, USA) or a MM-400 ball mill (Retsch GmbH, Haan, Germany).
The organs (tumour, kidney, liver) were separately homogenised in a 2 mL tube together with 3 grinding balls (3 mm diameter) and 1 mL of extraction buffer (850 μL 1 M HEPES pH7.4, 100 μL 20 mM PMPA and 100 μL 1M NaCl) for 10 min at 30 Hz. The homogenate was centrifuged at 13000 g for 5 min and the supernatant was collected. Subsequently, the pellet was suspended in 1 mL of extraction buffer and homogenized again with the ball mill for 10 min at 30 Hz. After centrifugation (13000 g, 5 min), both supernatants were combined and loaded on a Strata X cartridge (33 μm Polymeric Reversed Phase 500 mg, pre-conditioned with 5 mL MeOH, followed by 5 mL H2O). After washing with 5 mL H2O, the cartridge was eluted with a 6:4 mixture (v/v) of MeCN in H2O, supplemented with 1% TFA. The eluate of each organ was diluted with water and analysed by radio-HPLC.
Radio-TLC Analysis was carried out a) on urine samples by directly subjecting a small volume onto a TLC strip, b) by analysis of a small volume of the non-immobilized activity during the SPE process (the ‘breakthrough fraction’), and c) by analysis of a small volume of the cartridge eluates.
Since none of the reagents and salts normally used for protein precipitation are tested for cold fluoride and to avoid possible liberation of F-18-fluoride from the tracer by isotopic exchange, protein precipitation was not implemented in the sample preparation process—although such protein load often result in limited peak separation, peak tailing and activity that sticks at the start line. The solutions obtained after tissue extraction (or blood centrifugation) were directly used for TLC analysis.

[4] = Phosphoimager, listed as [^18F]rhPSMA7-rac
[5] = TLC Scanner, listed as [^18F]rhPSMA7-rac

Compound | individual internalization rates ([1]; c=0.5 nM, single measurements) | internalization rate Mean ([1]; mean) | radioactivity converted to [F-18]fluoride ([2]; fresh nonradioactive mouse urine + 0.5 μmol (500 nmol) cold F-19-fluoride, incubation 2 h) [%] | [F-18]rhPSMA7.3 proportion in radioactive urine after addition of 5 nmol [F-19]rhPSMA7-3 ([2]; room temperature) [%] | [F-18]rhPSMA7.3 proportion in radioactive urine before addition of cold tracer ([2]; urine with 20.6% [F-18]Fluoride) [%] | Intact tracer, Blood ([3]; Phosphoimager) [%] | Intact tracer, Kidney ([3]; Phosphoimager) [%] | Intact tracer, Tumor ([3]; Phosphoimager) [%] | ^18F-Fluoride, Blood ([3]; Phosphoimager) [%] | ^18F-Fluoride, Kidney ([3]; Phosphoimager) [%] | ^18F-Fluoride, Tumor ([3]; Phosphoimager) [%] | Intact tracer, Liver [3, 4] | Intact tracer, Urine [3, 4] | ^18F-Fluoride, Urine [3, 4] | Intact tracer, Kidney [3, 5] | Intact tracer, Urine [3, 5] | ^18F-Fluoride, Kidney [3, 5]
CC(C)(C)[Si](F)(c1ccc(C(=O)NC[C@@H](NC(=O)CC[C@@H](C(=O)O)N2CCN(CC(=O)[O-])CCN(CC(=O)[O-])CCN(CC(=O)[O-])CC2)C(=O)N[C@H](CCCCNC(=O)CCC(=O)NCCC[C@@H](NC(=O)CC[C@H](NC(=O)N[C@@H](CCC(=O)O)C(=O)O)C(=O)O)C(=O)O)C(=O)O)cc1)C(C)(C)C.[Ga+3] [rhPSMA7.3, [^19F][^natGa]D-Dap-S-DOTAGA-rhPSMA7] | 156.6 % of [^125I]IB-KuE and 156.0 % of [^125I]IB-KuE and 171.7 % of [^125I]IB-KuE | 161.41 % of [^125I]IB-KuE | 98.5 | 85.8 | 79.4 |  |  |  |  |  |  |  |  |  |  |  | 
[^19F][^natGa]D/L-Dap-R/S-DOTAGA-rhPSMA7 [rhPSMA7-rac] |  |  |  |  |  | 96.80 | 96.48 | 96.47 | 3.20 | 3.52 | 4.15 | 93.92^# % and 74.15^# % | 98.55% and 95.85% | 1.55% and 4.15% | 94.04% and 94.58% | 82.51% and 96.2% | 5.96% and 5.42%
